Data from patent US20060211690A1, “Microglia inhibitors for interrupting interleukin 12 and IFNgamma-mediated immune reactions” (Schering Aktiengesellschaft, priority 2002, published 2006).

How the values were obtained:
interleukin 12 = assay: Inhibition of the IL 12 production in LPS-stimulated THP-1 cells; format: cell-based; settings: Homo sapiens, 0.1 μg/ml LPS overnight, read-out: Inhibition of the IL 12 Secretion (IC50)
Procedure: (§1) The inhibition of the cytokine production can be visualized, for example, by measuring TNFα and interleukin 12 in lipopolysaccharide (LPS)-stimulated THP-1 cells.
(§2) For this purpose, 2.5×10^5 THP-1 cells (American Type Culture Company, Rockville, Md.)/ml of RPMI 1640 medium (Life Technologies)/10% FCS (Life Technologies, Cat. No. 10270-106) are grown on 96-hole flat-bottomed cell culture plates (TPP, Product No.9296) (100 μl/hole). The compounds according to the invention are added at various concentrations and pre-incubated for 30 minutes. The pre-dilution of the test substances was performed in the incubation medium. The addition of the test substances is carried out as a 2× concentrated substance solution (100 μl/hole). The stimulation of the cells was carried out overnight at 37° C with 0.1 μg/ml of LPS (Sigma L2630, of E. Coli Serotype 011 1.B4). Then, the medium was harvested, and the amount of TNFα or the amount of interleukin 12 was quantitatively determined. To measure the TNFα, a commercially available TNFα kit of the CIS Bio International Company was used (Product No. 62TNFPEB). The amount of interleukin 12 was implemented with the aid of the ORIGEN technology (IGEN International, Inc., Gaithersburg, Md.). The calculated IC50 value corresponds to the concentration of test substance that is required to reach a 50% inhibition of the maximum TNFα or interleukin 12 production. […]

TNFα [1] = assay: Inhibition of the TNFα production in LPS-stimulated THP-1 cells; format: cell-based; settings: Homo sapiens, 0.1 μg/ml LPS overnight, read-out: Inhibition of the TNFα Secretion (IC50)
Procedure: as §1, §2

IFNγ = assay: Inhibition of the IFNγ production of peripheral mononuclear blood cells (phytohemagglutinin-stimulated); format: cell-based; settings: human peripheral mononuclear blood cells, 5 μg/mL phytohemagglutinin, 48 hours; read-out: Inhibition of the IFNγ Secretion (IC50)
Procedure: To visualize the effect of the substances on T-cell activation, for example, the measurement of the IFNγ-secretion can be used.
To isolate peripheral mononuclear cells, human whole blood was used (drawing of blood via Na-citrate S-monovettes “Coagulation 9 NC/10 ml”/Sarstedt). The build-up of the blood cells was accomplished with the aid of density gradient centrifuging: For this purpose, 15 ml of Histopaque 1077 (Sigma, Cat. No. H8880) in LEUCOSEP tubes (Greiner, Cat. No. 227290) is introduced and centrifuged for 30 seconds at 1000 g. Then, 15 ml of whole blood is added and centrifuged for 10 minutes at 1000 g. Finally, the upper plasma layer is pipetted off and the subjacent cell layer (peripheral mononuclear blood cells) is transferred in 15 ml sample tubes (Falcon) and then […] several times with 10 ml of HBSS (HANKS Balanced Solution (without Mg2+ and Ca2+), Cat. No. 14175-53). […]
Then the medium was harvested, and the amount of IFNγ was determined quantitatively. The amount of IFNγ was determined with the aid of the ORIGEN technology (IGEN International, Inc., Gaithersburg, Md.). […]

microglia = assay: Inhibition of the microglia activation; format: cell-based
From the text: Compounds that with stimulation with the Aβ-peptide achieve an inhibition of the microglia activity of at least 20% and an inhibition of the cytokine activity of at least 30% are suitable, according to the invention, as microglia inhibitors. The biological properties of the microglia inhibitors can be shown according to the methods that are known to one skilled in the art, for example with the aid of the testing methods that are described below and in WO 01/51473.

IL-12 HD p70 = assay: Inhibition of IL-12 HD p70 production of peripheral mononuclear blood cells stimulated with LPS and IFNγ; format: cell-based, human; settings: 24 hours; for IC50: Homo sapiens, read-out: Inhibition of IL-12HD Secretion after LPS & IFNg Stimulation IC50
Procedure: (§3) The inhibition of the TNFα and IL-12 HD p70 production is visualized by, for example, measuring TNFα and IL-12 HD p70 in peripheral mononuclear blood cells that are stimulated with lipopolysaccharide (LPS) and interferon gamma (IFNγ).
(§4) To isolate peripheral mononuclear blood cells, human whole blood was used (drawing of blood via Na-Citrate S-monovettes “Coagulation 9 NC/10 ml”/Sarstedt). The build-up of the lymphocytes and monocytes was accomplished with the aid of the density gradient centrifuging: For this purpose, 15 ml of Histopaque-1077 (Sigma, Cat. No. H8880) is introduced into 50 ml LEUCOSEP tubes (Greiner, Cat. No. 227290) and forced downward by centrifuging for 30 seconds at 250 g by the frits that are contained in the tubes. Then, 20 ml of whole blood is added and centrifuged for 15 minutes at 800 g and at room temperature. After centrifuging, the supernatant (plasma and thrombocytes) is pipetted off and discarded, and the subjacent cell layer (lymphocytes and monocytes) is transferred into 50 ml centrifuging tubes (Falcon) and then washed 3× in culture medium VLE RPMI 1640 (Seromed, No. FG1415) (centrifuging in each case for 10 minutes at 250 g, room temperature). Finally, the cell pellet is resuspended in culture medium VLE RPMI 1640 (Seromed, No. FG1415), 10% FCS (Life Technologies, Cat. No. 16000-044, low endotoxin, heat-inactivated for 1 hour, 56° C.), and 50 μg/ml of penicillin-streptomycin solution (Life Technologies, Cat. No.15140-106) and set at 3×10^6 cells/ml after cell counting by means of trypan blue staining. In each case, 100 μl of cell suspension solution was dispersed on 96-hole flat-bottomed cell culture plates (Costar, Product No. 3599). In each case, 100 μl of 3×-concentrated stimulation solution (3 μg/ml of LPS of E. coli Serotype 0127:B8; Sigma, Cat. No. L-4516 and 300 ng/ml of IFNγ 1b, Imukin, Boehringer Ingelheim) was added to it. The substances according to the invention were added at various concentrations as 3×-concentrated substance solution (100 μl/well). The stimulation of the cells was carried out at 37° C. and 5% CO2 over a period of 24 hours. Then, the cell culture supernatant was harvested, and the concentrations of TNFα and IL-12 HD p70 were determined by means of commercially available ELISA Kits of the BioSource International Company (TNF-α EASIA, Cat. No. KAC 1752) and R & D Systems (Quantikine1υ HS IL-12, Cat. No. HS 120).
(§5) The calculated IC50 value corresponds to the concentration of test substance that is required to reach a 50% inhibition of the maximum TNFα- or interleukin 12 HD p70 production.

TNFα [2] = assay: Inhibition of TNFα production of peripheral mononuclear blood cells stimulated with LPS and IFNγ; format: cell-based, human; settings: 24 hours; for IC50: Homo sapiens, read-out: Inhibition of TNF-alpha Secretion after LPS & IFNg Stimulation IC50
Procedure: as §3, §4, §5

IL-10 = assay: Induction of IL-10 production of peripheral mononuclear blood cells; format: cell-based, human; settings: 24 hours; for EC50: Homo sapiens, PHA, read-out: Induction of the IL-10 Secretion after PHA Stimulation EC50
Procedure: The induction of IL-10 production is visualized by, for example, measuring IL-10 in peripheral mononuclear blood cells that are stimulated in phytohemagglutinin (PHA) or lipopolysaccharide (LPS).
To isolate peripheral mononuclear blood cells, human whole blood was used (drawing of blood via Na-Citrate S-monovettes “Coagulation 9 NC/10 ml”/Sarstedt). The build-up of the lymphocytes and monocytes was accomplished with the aid of the density gradient centrifuging: For this purpose, 15 ml of Histopaque-1077 (Sigma, Cat. No. H8880) in 50 ml LEUCOSEP tubes (Greiner, Cat. No. 227290) is introduced and forced downward by centrifuging for 30 seconds at 250 g by the frits that are contained in the tubes. Then, 20 ml of whole blood is added and centrifuged for 15 minutes at 800 g and at room temperature. After centrifuging, the supernatant (plasma and thrombocytes) is pipetted off and discarded, and the subjacent cell layer (lymphocytes and monocytes) in 50 ml centrifuging tubes (Falcon) is transferred and then washed 3× in culture medium VLE RPMI 1640 (Seromed, No. FG1415) (centrifuging in each case for 10 minutes at 250 g, room temperature). Finally, the cell pellet is resuspended in culture medium VLE RPMI 1640 (Seromed, No. FG1415), 10% FCS (Life Technologies, Cat. No. 16000-044, low endotoxin, heat-inactivated for 1 hour, 56° C.), 50 μg/ml of penicillin-streptomycin solution (Life Technologies, Cat. No. 15140-106) and set at 3×10^6 cells/ml after cell counting by means of trypan blue staining. In each case, 100 μl of cell suspension solution was dispersed on 96-hole flat-bottomed cell culture plates (Costar, Product No. 3599). In each case, 100 μl of 3×-concentrated stimulation solution (3 μg/ml of LPS of E. coli Serotype 0127:B8; Sigma, Cat. No. L-4516 or 300 μg/ml of PHA-L, Biochrom KG, Cat. No. M5030) was added to it. The substances according to the invention were added at various concentrations as 3×-concentrated substance solution (100 μl/well). The stimulation of the cells was carried out at 37° C. and 5% CO2 over a period of 24 hours. Then, the cell culture supernatant was harvested, and IL-10 was determined quantitatively. The IL-10 concentration was determined by means of a commercially available ELISA Kit of the BioSource International Company (human IL-10, Cat. No. KHC0101C). The calculated EC50 value corresponds to the concentration of test substance that is required to increase the IL-10 secretion by 50% of the maximum increase.

For Cc1ccc(-n2c(-c3ccccc3)nc3ccc(OCCCCCC(=O)OC(C)C)cc32)cc1 [Substance 1, 6-[[1-(4-Methylphenyl)-2-phenyl-1H-benzimidazol-6-yl]oxy]hexanoic acid-isopropyl ester], the IC50 (interleukin 12) was 2.2 µM, the IC50 (TNFα [1]) was 3 µM and the IC50 (IFNγ) was 1.3 µM. For the same compound, the IC50 (microglia) was 0.75 µM, the “Inhibition of IL-12HD Secretion after LPS & IFNg Stimulation Effectiveness” value (IL-12 HD p70) was 81% and the IC50 (IL-12 HD p70) was 0.092 µM. For the same compound, the “Inhibition of TNF-alpha Secretion after LPS & IFNg Stimulation Effectiveness” value (TNFα [2]) was 65%, the IC50 (TNFα [2]) was 0.65 µM and the “Induction of the IL-10 Secretion after PHA Stimulation Effectiveness” value (IL-10) was 245%. It also gave an EC50 (IL-10) of over 1 µM.
Compound Cc1ccc(-n2c(-c3ccccc3)nc3ccc(OCCCCCC(=O)O)cc32)cc1 [Substance 2, 6-[[1-(4-Methylphenyl)-2-phenyl-1H-benzimidazol-6-yl]oxy]hexanoic acid] has an IC50 (interleukin 12) of under 0.3 µM, an IC50 (TNFα [1]) of 0.15 µM and an IC50 (IFNγ) of 0.11 µM. The IC50 (microglia) was 0.16 µM, the “Inhibition of IL-12HD Secretion after LPS & IFNg Stimulation Effectiveness” value (IL-12 HD p70) was 93% and the IC50 (IL-12 HD p70) was 0.03 µM. The “Inhibition of TNF-alpha Secretion after LPS & IFNg Stimulation Effectiveness” value (TNFα [2]) was 83%, the IC50 (TNFα [2]) was 0.12 µM and the “Induction of the IL-10 Secretion after PHA Stimulation Effectiveness” value (IL-10) was 283%. The EC50 (IL-10) was 0.18 µM.
